For the test, the target named is T1, human glucocorticoid receptor (GR) complex (Homo sapiens, UniProt P04150).
T1 construct: made in house; host or cells: insect expression system (baculovirus lysate)
T1 sequence (P04150 1-777): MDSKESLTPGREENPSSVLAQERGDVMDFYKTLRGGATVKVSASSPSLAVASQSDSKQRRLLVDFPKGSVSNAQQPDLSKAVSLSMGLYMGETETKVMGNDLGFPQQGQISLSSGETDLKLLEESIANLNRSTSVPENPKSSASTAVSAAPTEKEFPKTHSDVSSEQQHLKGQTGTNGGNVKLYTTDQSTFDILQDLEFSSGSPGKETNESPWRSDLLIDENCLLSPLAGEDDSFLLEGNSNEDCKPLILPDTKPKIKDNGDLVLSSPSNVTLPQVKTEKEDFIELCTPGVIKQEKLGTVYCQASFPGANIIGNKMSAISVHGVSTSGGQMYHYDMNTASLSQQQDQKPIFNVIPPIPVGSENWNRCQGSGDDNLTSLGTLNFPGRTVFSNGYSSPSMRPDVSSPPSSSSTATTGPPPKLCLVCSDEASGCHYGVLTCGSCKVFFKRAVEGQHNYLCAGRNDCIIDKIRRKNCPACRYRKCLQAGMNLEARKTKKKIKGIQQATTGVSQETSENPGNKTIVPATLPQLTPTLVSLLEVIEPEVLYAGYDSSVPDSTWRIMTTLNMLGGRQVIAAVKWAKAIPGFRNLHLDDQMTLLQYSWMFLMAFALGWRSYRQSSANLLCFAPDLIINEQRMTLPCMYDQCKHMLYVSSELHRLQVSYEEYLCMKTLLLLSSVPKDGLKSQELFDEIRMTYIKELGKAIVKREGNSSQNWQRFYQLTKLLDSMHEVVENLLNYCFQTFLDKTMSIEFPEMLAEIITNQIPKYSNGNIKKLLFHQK
Briefly: Glucocorticoid Receptor Competitive Binding Assay (fluorescence polarization, TAMRA-labeled dexamethasone probe). Particulars: qualitative statement; competition with TAMRA-labeled dexamethasone. Here is the method: Compounds of the invention were evaluated for binding to the steroid receptor by a fluorescence polarization competitive binding assay.
A. Glucocorticoid Receptor Competitive Binding Assay
Step 1. Characterization of the Fluorescent Probe
The wavelengths for maximum excitation and emission of the fluorescent probe should first be measured. An example of such a probe is rhodamine (TAMRA)-labeled dexamethasone.
The affinity of the probe for the steroid receptor was then determined in a titration experiment. The fluorescence polarization value of the probe in assay buffer was measured on an SLM-8100 fluorometer using the excitation and emission maximum values described above. Aliquots of expression vector lysate were added and fluorescence polarization was measured after each addition until no further change in polarization value was observed. Non-linear least squares regression analysis was used to calculate the dissociation constant of the probe from the polarization values obtained for lysate binding to the probe.
Step 2. Screening for Inhibitors of Probe Binding
This assay uses fluorescence polarization (FP) to quantitate the ability of test compounds to compete with tetramethyl rhodamine (TAMRA)-labeled dexamethasone for binding to a human glucocorticoid receptor (GR) complex prepared from an insect expression system. The assay buffer was: 10 mM TES, 50 mM KCl, 20 mM Na2MoO4. 2H2O, 1.5 mM EDTA, 0.04% w/v CHAPS, 10% v/v glycerol, 1 mM dithiothreitol, pH 7.4. Test compounds were dissolved to 1 mM in neat DMSO and then further diluted to 10× assay concentration in assay buffer supplemented with 10% v/v DMSO. Test compounds were serially diluted at 10× assay concentrations in 10% DMSO-containing buffer in 96-well polypropylene plates. […] Positive controls were reaction mixtures containing no test compound; negative controls (blanks) were reaction mixtures containing 0.7 μM to 2 μM dexamethasone. […] IC50 values were determined by iterative non-linear curve fitting of the FP signal data to a 4-parameter logistic equation.

The text below walks through data of patent US7553966B2, “Glucocorticoid mimetics, methods of making them, pharmaceutical compositions, and uses thereof” (Boehringer Ingelheim Pharmaceuticals, Inc., priority 2002, dated 2009).

`CC(C)(CC(O)(Cc1cc2ccccc2[nH]1)C(F)(F)F)c1cc(C#N)cc2c1OCC2` (stereo not shown) [4-(2,3-dihydro-5-cyanobenzofuran-7-yl)-1,1,1-trifluoro-2-(1H-indol-2-ylmethyl)-4-methylpentan-2-ol]: the “activity in the GR binding assay” value is “potent activity”. For the compound `COc1cccc(C(C)(C)CC(O)(Cc2cc3cc(C#N)ccc3[nH]2)C(F)(F)F)c1` (stereo not shown) [2-[2-Hydroxy-4-(3-methoxyphenyl)-4-methyl-2-trifluoromethylpentyl]-1H-indole-5-carbonitrile], the “activity in the GR binding assay” value is on record as “potent activity”. The value for `COc1ccc(F)cc1C(C)(C)CC(O)(Cc1cc(Cl)nc2ccccc12)C(F)(F)F` (stereo not shown) [1,1,1-Trifluoro-4-(5-fluoro-2-methoxyphenyl)-4-methyl-2-(2-chloroquinolin-4-ylmethyl)pentan-2-ol] was “potent activity”; that for `CCC(O)(Cc1cc2ccccc2[nH]1)CC(C)(C)c1cc(F)ccc1OC` (stereo not shown) [5-(5-Fluoro-2-methoxyphenyl)-3-(indol-2-ylmethyl)-5-methylhexan-3-ol] was “potent activity”; that for `COc1ccc(F)cc1C(C)(C)CC(O)(Cc1nc2cc(C)cc(C)c2[nH]1)C(F)(F)F` (stereo not shown) [2-(5,7-Dimethyl-1H-benzoimidazol-2-ylmethyl)-1,1,1-trifluoro-4-(5-fluoro-2-methoxyphenyl)-4-methylpentan-2-ol] was “potent activity”.

In the case of `COc1ccc(F)cc1C(C)(C)CC(O)(Cc1nc2cccc(C)c2[nH]1)C(F)(F)F` (stereo not shown) [1,1,1-Trifluoro-4-(5-fluoro-2-methoxyphenyl)-4-methyl-2-(7-methyl-1H-benzoimidazol-2-ylmethyl)pentan-2-ol], the “activity in the GR binding assay” value was “potent activity”. To `CC(C)(CC(O)(Cc1cc2cc(C#N)ccc2[nH]1)C(F)(F)F)c1cccc(F)c1` (stereo not shown) [2-[4-(3-Fluorophenyl)-2-hydroxy-4-methyl-2-trifluoromethylpentyl]-1H-indole-5-carbonitrile] belongs “potent activity”; to `Cc1ccc(F)cc1C(C)(C)CC(O)(Cc1nc2cccc(C)c2[nH]1)C(F)(F)F` (stereo not shown) [1,1,1-Trifluoro-4-(5-fluoro-2-methylphenyl)-4-methyl-2-(7-methyl-1H-benzoimidazol-2-ylmethyl)pentan-2-ol], “potent activity”; to `CCc1cccc(C(C)(C)CC(O)(Cc2ccnc3ccccc23)C(F)(F)F)c1OC` (stereo not shown) [4-(3-Ethyl-2-methoxyphenyl)-1,1,1-trifluoro-4-methyl-2-quinolin-4-ylmethylpentan-2-ol], “potent activity”.

Turning to `COc1ccc(C(C)(C)CC(O)(Cc2cc3ccccc3[nH]2)C(F)(F)F)cc1` (stereo not shown) [1,1,1-Trifluoro-2-(1H-indol-2-ylmethyl)-4-(4-methoxyphenyl)-4-methylpentan-2-ol], the “activity in the GR binding assay” value is recorded as “potent activity”.

Take `CC(C)(CC(O)(Cc1ccnc2cc(F)ccc12)C(F)(F)F)c1ccc(F)cc1` (stereo not shown) [1,1,1-Trifluoro-4-(4-fluorophenyl)-2-(7-fluoroquinolin-4-ylmethyl)-4-methylpentan-2-ol]: the “activity in the GR binding assay” value was “potent activity”.

With `Cc1ccc(C(C)(C)CC(O)(Cc2ccnc3ccccc23)C(F)(F)F)cc1` (stereo not shown) [1,1,1-Trifluoro-4-methyl-2-quinolin-4-ylmethyl-4-p-tolylpentan-2-ol], the “activity in the GR binding assay” value is listed as “potent activity”. Consider `COc1c(C(C)(C)CC(O)(Cc2ccnc3ccccc23)C(F)(F)F)ccc2ccccc12` (stereo not shown) [1,1,1-Trifluoro-4-(1-methoxynaphthalen-2-yl)-4-methyl-2-quinolin-4-ylmethylpentan-2-ol], for which the “activity in the GR binding assay” value is on record as “potent activity”.

For the compound `COc1ccc(F)cc1C(C)(C)CC(O)(Cn1cc(C)nc1-c1ccccc1)C(F)(F)F` (stereo not shown) [2-(2-Phenyl-4-methylimidazol-1-ylmethyl)-1,1,1-trifluoro-4-(5-fluoro-2-methoxyphenyl)-4-methylpentan-2-ol], the “activity in the GR binding assay” value is “potent activity”.

Regarding `CC(C)(CC(O)(Cc1ccnc(Cl)c1)C(F)(F)F)c1cc(F)ccc1O` (stereo not shown) [1,1,1-Trifluoro-4-(5-fluoro-2-hydroxyphenyl)-4-methyl-2-(2-chloropyridin-4-ylmethyl)pentan-2-ol], the “activity in the GR binding assay” value is “potent activity”. The value for `CC(C)(CC(O)(Cc1cc2ccccc2[nH]1)C(F)(F)F)c1ccc(O)cc1` (stereo not shown) [4-[4,4,4-Trifluoro-3-hydroxy-3-(1H-indol-2-ylmethyl)-1,1-dimethylbutyl]phenol] was “potent activity”; that for `COc1ccc(F)cc1C(C)(C)CC(O)(CF)Cc1cc2ccccc2[nH]1` (stereo not shown) [4-(5-Fluoro-2-methoxyphenyl)-2-fluoromethyl-1-(1H-indol-2-yl)-4-methylpentan-2-ol] was “potent activity”; that for `Cc1ccc(C(C)(C)CC(O)(Cc2cc3ccccc3[nH]2)C(F)(F)F)cc1` (stereo not shown) [1,1,1-Trifluoro-2-(1H-indol-2-ylmethyl)-4-methyl-4-p-tolylpentan-2-ol] was “potent activity”.

For `CC(C)(CC(O)(Cc1ccnc2ccccc12)C(F)(F)F)c1ccc2ccccc2c1` (stereo not shown) [1,1,1-Trifluoro-4-methyl-4-naphthalen-2-yl-2-quinolin-4-ylmethylpentan-2-ol], the “activity in the GR binding assay” value is recorded as “potent activity”. The value for `CC(C)(CC(O)(Cc1cc2ccccc2[nH]1)C(F)(F)F)c1ccc2c(c1)CCO2` (stereo not shown) [4-(2,3-Dihydrobenzofuran-5-yl)-1,1,1-trifluoro-2-(1H-indol-2-ylmethyl)-4-methylpentan-2-ol] was “potent activity”. To `CC(C)(CC(O)(Cc1[nH]c2ccccc2c1C#N)C(F)(F)F)c1cccc(F)c1` (stereo not shown) [2-[4-(3-Fluorophenyl)-2-hydroxy-4-methyl-2-trifluoromethylpentyl]-1H-indole-3-carbonitrile] belongs “potent activity”; to `COc1ccc(F)cc1C(C)(C)CC(O)(Cn1cc(C#N)c2ccccc21)C(F)(F)F` (stereo not shown) [1-[4-(5-Fluoro-2-methoxyphenyl)-2-hydroxy-4-methyl-2-trifluoromethylpentyl]-1H-indole-3-carbonitrile], “potent activity”. Regarding `CC(C)(CC(O)(Cc1cc2cccc(F)c2[nH]1)C(F)(F)F)c1ccccc1` (stereo not shown) [1,1,1-Trifluoro-2-(7-fluoro-1H-indol-2-ylmethyl)-4-methyl-4-phenylpentan-2-ol], the “activity in the GR binding assay” value was “potent activity”. The value for `COc1ccc(F)cc1C(C)(C)CC(O)(Cc1nc2ccc(F)c(F)c2[nH]1)C(F)(F)F` (stereo not shown) [2-(6,7-Difluoro-1H-benzoimidazol-2-ylmethyl)-1,1,1-trifluoro-4-(5-fluoro-2-methoxyphenyl)-4-methylpentan-2-ol] was “potent activity”. Consider `COc1ccc(F)cc1C(C)(C)CC(O)(Cc1ccnc(Br)c1)C(F)(F)F` (stereo not shown) [1,1,1-Trifluoro-4-(5-fluoro-2-methoxyphenyl)-4-methyl-2-(2-bromopyridin-4-ylmethyl)pentan-2-ol], for which the “activity in the GR binding assay” value is listed as “potent activity”. The value for `CCc1cccc(C(C)(C)CC(O)(Cc2ccnc3ccccc23)C(F)(F)F)c1O` (stereo not shown) [2-Ethyl-6-(4,4,4-trifluoro-3-hydroxy-1,1-dimethyl-3-quinolin-4-ylmethylbutyl)phenol] was “potent activity”; that for `CC(C)(CC(O)(Cc1ccnc2ccccc12)C(F)(F)F)c1ccc2c(c1)CCO2` (stereo not shown) [4-(2,3-Dihydrobenzofuran-5-yl)-1,1,1-trifluoro-4-methyl-2-quinolin-4-ylmethylpentan-2-ol] was “potent activity”; that for `COc1ccc(F)cc1C(C)(C)CC(O)(Cc1cc2ncccc2[nH]1)C(F)(F)F` (stereo not shown) [1,1,1-Trifluoro-4-(5-fluoro-2-methoxyphenyl)-4-methyl-2-(1H-pyrrolo[3,2-b]pyridin-2-ylmethyl)pentan-2-ol] was “potent activity”.
